Test results from ChEMBL document CHEMBL1201862, “PubChem BioAssay data set” (2004).
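These data come from cells grown in 96-well plates and exposed to compound for 48 hours at five concentrations. GI50: concentration for 50% inhibition of growth.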 The source made the active and inactive calls. No stated cut-off is given here; in the data, active = GI50 up to about 1.1 µM and inactive = higher.

Key:
Test in all cases: NCI-60 cell line screen, 48 h
CAKI-1 = system: CAKI-1
COLO 205 = system: COLO 205
HCT-116 = system: HCT-116
HL-60 = system: HL-60
NCI-H23 = system: NCI-H23
OVCAR-3 = system: OVCAR-3
OVCAR-4 = system: OVCAR-4
SK-MEL-28 = system: SK-MEL-28
SNB-75 = system: SNB-75
UACC-62 = system: UACC-62
HCC 2998 = system: HCC 2998
OVCAR-5 = system: OVCAR-5
RXF 393 = system: RXF 393
HOP-92 = system: HOP-92
KM12 = system: KM12

Measured: GI50

COc1ccc(/C=C2\CCCCC2=O)cc1
inactive: CAKI-1 92.5 µM | COLO 205 > 100 µM | HCT-116 > 100 µM | HL-60 > 100 µM | NCI-H23 > 100 µM | OVCAR-3 > 100 µM | OVCAR-4 > 100 µM | SK-MEL-28 > 100 µM | SNB-75 41.8 µM | UACC-62 > 100 µM

C=CCn1c(=S)sc2c(C(=O)OCC)c3c(C)cc(C)cn3c2c1=O
inactive: CAKI-1 > 100 µM | COLO 205 > 100 µM | HCC 2998 > 100 µM | HCT-116 > 100 µM | HL-60 > 100 µM | NCI-H23 > 100 µM | OVCAR-3 > 100 µM | OVCAR-5 > 100 µM | RXF 393 > 100 µM | SK-MEL-28 > 100 µM | SNB-75 45.4 µM | UACC-62 > 100 µM

CC(=O)N1CCc2[nH]c3ccccc3c2CC1
inactive: CAKI-1 > 100 µM | COLO 205 > 100 µM | HCC 2998 > 100 µM | HCT-116 > 100 µM | HL-60 > 100 µM | HOP-92 31.5 µM | KM12 > 100 µM | NCI-H23 > 100 µM | OVCAR-3 > 100 µM | OVCAR-4 > 100 µM | OVCAR-5 > 100 µM | SK-MEL-28 > 100 µM | SNB-75 19.9 µM | UACC-62 86.1 µM

O=[N+]([O-])c1ccc(-c2ccc(/C=N/n3c(S)nnc3-c3ccc(Cl)cc3)o2)cc1
inactive: CAKI-1 > 39 µM | COLO 205 32.1 µM | HCC 2998 > 72.4 µM | HCT-116 17.7 µM | HL-60 51.2 µM | HOP-92 > 42 µM | KM12 22.8 µM | NCI-H23 27.2 µM | OVCAR-3 27.9 µM | OVCAR-4 > 38.1 µM | OVCAR-5 > 100 µM | SK-MEL-28 16.6 µM | SNB-75 33.3 µM | UACC-62 27.4 µM

Cc1cc(CC(O)c2ccc(Cl)c(Cl)c2)nc(O)n1 (stereo not given)
inactive: CAKI-1 21.7 µM | COLO 205 31 µM | HCT-116 19.6 µM | HL-60 31 µM | HOP-92 18 µM | KM12 36.4 µM | NCI-H23 27.5 µM | OVCAR-3 32.2 µM | OVCAR-4 48.9 µM | OVCAR-5 69 µM | SK-MEL-28 > 100 µM | SNB-75 17.7 µM | UACC-62 50.9 µM

O=[N+]([O-])c1cccc(C2=NN(c3ccccc3)C3c4ccccc4OCC23)c1 (stereo not given)
inactive: COLO 205 > 100 µM | HCC 2998 > 100 µM | HCT-116 27.2 µM | HL-60 66.1 µM | HOP-92 52.8 µM | KM12 > 100 µM | NCI-H23 > 100 µM | OVCAR-3 > 100 µM | OVCAR-5 > 100 µM | RXF 393 > 100 µM | SK-MEL-28 > 100 µM | SNB-75 > 100 µM

Cc1ccc(Nc2nc(-c3ccc(-c4ccc([N+](=O)[O-])cc4)o3)cs2)cc1
inactive: CAKI-1 > 100 µM | COLO 205 40 µM | HCC 2998 23.4 µM | HCT-116 67.1 µM | HL-60 58.7 µM | HOP-92 37.2 µM | KM12 52.8 µM | NCI-H23 25.6 µM | OVCAR-3 > 100 µM | OVCAR-4 63.1 µM | OVCAR-5 59 µM | SK-MEL-28 38 µM | SNB-75 50.5 µM | UACC-62 99.8 µM

Cc1cc(N(CCC#N)CCC#N)ccc1/C=C/C(=O)Nc1cccc(Cl)c1
inactive: CAKI-1 > 100 µM | COLO 205 > 100 µM | HCC 2998 > 100 µM | HCT-116 > 100 µM | HL-60 51.3 µM | HOP-92 43.4 µM | KM12 > 100 µM | NCI-H23 > 100 µM | OVCAR-3 > 100 µM | OVCAR-4 58.6 µM | OVCAR-5 > 100 µM | SK-MEL-28 > 100 µM | SNB-75 89.9 µM | UACC-62 46.9 µM

O=C(O)C#CCO
inactive: CAKI-1 > 100 µM | COLO 205 > 100 µM | HCT-116 > 100 µM | HL-60 > 100 µM | HOP-92 > 100 µM | KM12 > 100 µM | NCI-H23 > 100 µM | OVCAR-3 > 100 µM | OVCAR-4 > 100 µM | OVCAR-5 > 100 µM | RXF 393 > 100 µM | SK-MEL-28 > 100 µM | SNB-75 > 100 µM | UACC-62 > 100 µM

N=C(N)NS(=O)(=O)c1ccc(NC(=O)c2cccc3c(Nc4ccc(S(=O)(=O)N=C(N)N)cc4)c4ccc(Cl)cc4nc23)cc1
inactive: CAKI-1 94.6 µM | COLO 205 47.2 µM | HCC 2998 79.3 µM | HCT-116 38.7 µM | HOP-92 32.7 µM | KM12 > 100 µM | NCI-H23 > 100 µM | OVCAR-3 60.5 µM | OVCAR-4 80 µM | OVCAR-5 > 100 µM | RXF 393 > 100 µM | SK-MEL-28 75 µM | SNB-75 30.8 µM | UACC-62 33.3 µM

CC(Cn1c2c3ccccc3ccc2c2oc(=O)c3ccccc3c21)N(C)C (stereo not given)
inactive: CAKI-1 > 100 µM | COLO 205 > 100 µM | HCT-116 > 100 µM | HL-60 > 100 µM | HOP-92 > 100 µM | KM12 > 100 µM | NCI-H23 > 100 µM | OVCAR-3 > 100 µM | OVCAR-4 > 100 µM | OVCAR-5 > 100 µM | SK-MEL-28 > 100 µM | SNB-75 > 100 µM | UACC-62 > 100 µM

O=C1C(Br)=CC2(C=C1Br)CCNC1=C2C(=O)c2ccccc2C1=O
inactive: CAKI-1 21.6 µM | COLO 205 4.61 µM | HCT-116 4.13 µM | HL-60 3.34 µM | KM12 8.22 µM | NCI-H23 7.6 µM | OVCAR-3 29.6 µM | RXF 393 3.84 µM | SK-MEL-28 > 10 µM | SNB-75 > 100 µM | UACC-62 8.59 µM

Nc1ncnc2c1ncn2CCCC(c1ccccc1)P(=O)(O)O (stereo not given)
inactive: CAKI-1 17 µM | COLO 205 > 100 µM | HCC 2998 > 100 µM | HCT-116 > 100 µM | HL-60 > 100 µM | KM12 > 100 µM | NCI-H23 > 100 µM | OVCAR-3 > 100 µM | OVCAR-5 > 100 µM | RXF 393 > 100 µM | SK-MEL-28 > 100 µM | SNB-75 > 100 µM | UACC-62 > 100 µM

O=S(O)CCCSSCCCCSSCCCS(=O)O
inactive: CAKI-1 > 100 µM | COLO 205 > 100 µM | HCC 2998 > 100 µM | HCT-116 > 100 µM | KM12 > 100 µM | NCI-H23 > 100 µM | OVCAR-3 > 100 µM | OVCAR-4 > 100 µM | OVCAR-5 > 100 µM | RXF 393 > 100 µM | SK-MEL-28 > 100 µM | SNB-75 66.8 µM | UACC-62 > 100 µM

CC1(C)CC[C@]2(C(=O)O)CCC3(C)C(=CCC4[C@@]5(C)CC[C@H](OC6OCC(O)C(O)C6OC6OC(CO)C(O)C(O)C6O)C(C)(C)C5CC[C@]43C)C2C1 (stereo not given in full)
inactive: CAKI-1 1.66 µM | COLO 205 1.89 µM | HCC 2998 1.71 µM | HCT-116 2.81 µM | HOP-92 1.84 µM | KM12 2.24 µM | NCI-H23 2.11 µM | OVCAR-3 2.12 µM | OVCAR-4 1.57 µM | OVCAR-5 2.41 µM | RXF 393 1.96 µM | SK-MEL-28 2.33 µM | SNB-75 2.2 µM | UACC-62 1.83 µM
